pIC50: −log10 of the molar value.
Columns and labels:
[1] = 50% rabbit plasma at 37° C.
Procedure: To determine the stability of the FHA II peptide, the unmodified or the acetylated-amidated peptide were incubated in 50% rabbit plasma at 37° C.

[2] = test system: rabbits challenged intracisternally with pneumococcus strain R6; assay: Rabbit model for meningitis, intravenous FHA or peptides; assay type: in vivo; conditions: for Lactate / Protein: CSF at 6 hours
Procedure: The rabbit model was performed according to an established protocol. Specific pathogen free, New Zealand white rabbits (2 kg; Hare Marland, Nutley, N.J.) were anesthetized with valium (2.5 mg/kg, subcutaneously, Hoffman-LaRoche, Nutley, N.J.), ketamine (35 mg/kg, intramuscularly, Aveco, Fort Dodge, Iowa) and xylazine (5 mg/kg, intramuscularly, Miles Laboratories, Shawnee, Kans.) and a helmet of dental acrylic was affixed to the calvarium. Twenty four hours later, the rabbits were anesthetized with ethyl carbamate (1.75 g/kg; Aldrich Chemical Co., Milwaukee, Wis.) and pentobarbital (15 mg/kg; Abbott Laboratories, Abbott Park, Ill.) and placed in a stereotaxic frame. A spinal needle was introduced into the cisterna magna and 300 μl of CSF was withdrawn. The animals were challenged intracisternally with 10^8 heat killed, unencapsulated pneumococcus strain R6 introduced in 200 μl of saline (time 0). One hour later, animals were treated with peptides dissolved in 1 ml of saline by intravenous injection into the right marginal ear vein. The concentration of FHA was 0.1 μM and that of the FHA Ia, Factor X II, and scrambled FHA II peptides was 10 μM. For the acetyl-FHA II, acetyl/amide-FHA II, dimer of FHA II and trimer of FHA II peptides, the concentration was 10^-3 μM. The concentration of FHA II is given in the results section. Samples of CSF were withdrawn at hourly intervals after pneumococcal inoculation and leukocyte density was measured using a cell counter (Coulter Electronics Inc., Hialeah, Fla.). CSF samples were centrifuged at 10,000×g for 5 minutes and the supernatant was stored at -70° C. until assayed for protein concentration using the bicinchoninic acid method (BCA Kit, Pierce Chemical Co., Rockford Ill.) and for lactate concentration (Lactate Detection Kit, Sigma, St. Louis, Mo.). Statistically significant differences between treatments were determined by a one way analysis of variance test.
The anti-inflammatory effects of the administered peptides were assessed in the rabbit model for meningitis by the procedures described in Example 10. The animals received 1 ml of 1 uM peptide intravenously. In a slight departure from the protocol described in Example 10, samples of blood were drawn from the left marginal ear vein 30 minutes after the administration of the peptides to determine peripheral leukocyte concentrations.

[3] = test system: THP-1 cells; assay: Generation of Factor Xa by monocytes; assay type: cell-based; conditions: peptides 0.5 mM
Procedure: Factor Xa generation was determined by a modification of the method of Miletich et al. (1978), J. Biol. Chem. 253: 6908-6916. THP-1 cells (ATCC; 3×10^7 /ml) resuspended in RPMI 1640 (Bio Whittaker, Walkersville, Md.) were incubated with 100 μM ADP (Sigma), 2.5 mM CaCl2, 1 or 5 μg/ml Factor X (Hematologic Technologies Inc.) and 0.5 mM peptides at room temperature. After 20 minutes, 100 μl of the reaction mixture was transferred to 37° C. and supplemented with 100 μl of bovine factor VII- and Factor X-deficient plasma (Sigma). Coagulation was initiated by adding 100 μl of 25 mM CaCl2 and the clotting time was determined. Factor Xa procoagulant activity (ng/ml) was calculated by means of a standard curve constructed by serial concentrations of Factor Xa (Hematologic Technologies Inc.) from 50 to 250 ng/ml.

[4] = test system: Recognition of C3bi by 12.1F9; assay: Peptide inhibition of recognition of C3bi by 12.1F9; assay type: binding
[5] = test system: Human neutrophils; assay: Binding of 125I-Factor X to neutrophils
Procedure: Human Factor X (Sigma or Hematologic Technologies Inc.) was labeled with ^125 I using Iodogen (Pierce Chemical Co.) Human neutrophils were isolated from heparinized blood according to the manufacturer's specification using Neutrophil Isolation Medium (Cardinal Associates, Santa Fe, N.M.) and washed three times with 5 mM EDTA-phosphate-buffered saline (PBS), pH 7.2, at 4° C. To eliminate platelet contamination,neutrophils were incubated with autologous serum containing 5 mM EDTA for 30 mins. at 37° C., washed three times with ice-cold PBS, pH 7.2, and resuspended in RPMI 1640 tissue culture medium (Whittaker M. A. Bioproducts, Walkersville, Md.) at 4° C. Binding of ^125 I-Factor X to neutrophils was measured based on a method described by Altieri et al. (1991) Science 254: 1200-1202. Briefly, 200 μl of neutrophils (1.5×10^7 /ml) were supplemented with 17.5 μl of 50 mM CaCl2, stimulated with 3.5 μl of 100 μM NH2 -formyl-Met-Leu-Phe (Sigma), and mixed with 30 μl of 10.3 μg/ml ^125 I-Factor X and 100 μl of 1.75 mM of peptide. Buffer alone and a peptide of scrambled sequence served as controls in each of the 3 experiments. After incubation for 20 mins. at room temperature, neutrophil-bound ^125 I-Factor X was separated from unbound ^125 I-Factor X by centrifugation of 300 μl aliquots through 50 μl of a mixture of Hi phenyl silicone oil DC 550 and methyl silicone oil DC 200 5:1 (Nye Inc. Specialty Lubricants, New Bedford, Mass.) at 12,000×g for 2 mins. Aliquots of the supernatant (cell free ^125 I-Factor X) and the cell pellet (cell bound ^125 I-Factor X) were counted in a gamma-counter. Nonspecific binding (~50,000 cpm) was determined by adding a 100 fold excess of unlabeled Factor X, and subtracted from total radioactivity (~500,000 cpm for controls).

Substance	concentration over time in plasma [1]	leukocytes/μl CSF ([2]; 6 hours post-pneumococcal challenge, 10 nmoles i.v.) [cells/μl]	Lactate ([2]; FHA 0.1 μM, peptides 10 μM) [mg/100 ml]	Protein ([2]; FHA 0.1 μM, peptides 10 μM) [mg/ml CSF]	Clotting time [3] [s]	Factor Xa ([3]; from standard curve) [ng/mL]	block of binding of 12.1F9 to C3bi [4]	Adherence index ([4]; peptides 50 μg/ml, normalized to a control value of 100)	Total protein in CSF ([2]; 6 hours after intracisternal inoculation of pneumococci) [mg/mL]	mean leukocyte concentration/μl CSF ([2]; 7 hours after challenge, 10^-3 μM i.v.)	mean leukocyte concentration/μl CSF ([2]; 7 hours after challenge, FHA 0.1 μM (25 μg per 2 kg), peptides 10 μM, i.v.)	mean leukocyte density/μl CSF ([2]; 7 hours after challenge, FHA 0.1 μM (25 μg/animal), peptides 1 ml of 1 uM i.v.) [cells/μl CSF]	Total protein in CSF ([2]; 7 hours after intracisternal inoculation of pneumococci) [mg/mL]	reduction of CSF leukocytosis ([2]; 7 hours, FHA 0.1 μM, peptides 10 μM) [%]	anti-inflammatory activity at reduced concentration ([2]; concentrations reduced from 10 to 0.1 μM, FIG. 21)	inflammation, numbers of leukocytes in the cerebrospinal fluid ([2]; intravenous, FIG. 5)	inhibition of 125I-Factor X binding to neutrophils ([5]; peptides 0.5 mM, native FHA 0.3 μM, mAb IB4 100 μg/ml) [%]	pIC50 ([5]; read-out: IC50 of inhibition of 125I-Factor X binding)
Ac-ETKEVDG-NH2 [Acetyl/Amide-FHA II]	remained unchanged over 48 hours	3011±684	24.3 ± 3.2	1.2 ± 0.6	40.0 ± 3.0	28.5	–	–	–	–	–	–	–	–	–	–	–	–
Filamentous hemagglutinin [native FHA]	–	–	25.0 ± 5.3	1.3 ± 0.3	–	–	blocked binding almost completely	16 ± 16	1.70 ± 0.33	ineffective	2096±450 /μl CSF	2096±450	1.86 ± 0.76	> 60	more potent anti-inflammatory activity than the corresponding Factor X peptide II	decreases inflammation	70±4	7.00
